Experimental findings from patent US12649750B2, “Macrocyclic compounds, compositions, and methods of using thereof” (Sionna Therapeutics Inc., priority 2022, dated 2026) are described below.

The structures appear in SMILES notation.

The target in assay [1] is T1, NBD1 (Homo sapiens, UniProt P13569).
T1 construct: Purified recombinant NBD1 was produced using previously described methods; made in house
The assay can be described thus: Aggregation analysis using differential static light scattering (DSLS), thermal stability of NBD1 (ΔTagg). The class given is binding. The conditions noted are these: ΔTagg versus DMSO control, NBD1 0.2 mg/ml. A digest of the protocol:
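Purified recombinant NBD1 at 0.2 mg/ml in Tris buffer pH7.6 with 2 mM ATP, 5 mM MgCl2, 2 mM DTT and 1% glycerol was mixed with DMSO-dissolved compounds under mineral oil. Plates were heated at 1° C. per minute to 70° C., light scattering imaged every 0.5° C.; Tagg from curve inflection, minus DMSO-control mean.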

Assay [2] deals with T2, CFTR (Homo sapiens, UniProt P13569, DEL508-508).
T2 construct: Primary human bronchial epithelial cells from a ΔF508 homozygous CF donor; host or cells: primary human bronchial epithelial cells (CF-HBE), ΔF508 homozygous donor
The assay can be described thus: TECC24 AUC fold over DMSO @10 μM, CFTR-mediated transepithelial chloride transport in CF-HBE cells. The class given is cell-based. As to conditions: test agent AUC divided by DMSO vehicle AUC, primary CF-HBE cells, ΔF508 homozygous donor, 48 hours incubation. In a few lines:
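Primary ΔF508-homozygous CF bronchial epithelial cells on inserts were incubated 48 h at 36.5 °C with compound in IL-13-containing medium. VT and TEER were then recorded in current-clamp mode (pH 7.4 HEPES bath) with benzamil 10 μM, forskolin 10 μM, then CFTR inhibitor-172 20 μM. The IEQ AUC between forskolin and inhibitor was divided by vehicle AUC.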

T2 sequence (P13569 with tags, fused parts or gaps DEL508-508): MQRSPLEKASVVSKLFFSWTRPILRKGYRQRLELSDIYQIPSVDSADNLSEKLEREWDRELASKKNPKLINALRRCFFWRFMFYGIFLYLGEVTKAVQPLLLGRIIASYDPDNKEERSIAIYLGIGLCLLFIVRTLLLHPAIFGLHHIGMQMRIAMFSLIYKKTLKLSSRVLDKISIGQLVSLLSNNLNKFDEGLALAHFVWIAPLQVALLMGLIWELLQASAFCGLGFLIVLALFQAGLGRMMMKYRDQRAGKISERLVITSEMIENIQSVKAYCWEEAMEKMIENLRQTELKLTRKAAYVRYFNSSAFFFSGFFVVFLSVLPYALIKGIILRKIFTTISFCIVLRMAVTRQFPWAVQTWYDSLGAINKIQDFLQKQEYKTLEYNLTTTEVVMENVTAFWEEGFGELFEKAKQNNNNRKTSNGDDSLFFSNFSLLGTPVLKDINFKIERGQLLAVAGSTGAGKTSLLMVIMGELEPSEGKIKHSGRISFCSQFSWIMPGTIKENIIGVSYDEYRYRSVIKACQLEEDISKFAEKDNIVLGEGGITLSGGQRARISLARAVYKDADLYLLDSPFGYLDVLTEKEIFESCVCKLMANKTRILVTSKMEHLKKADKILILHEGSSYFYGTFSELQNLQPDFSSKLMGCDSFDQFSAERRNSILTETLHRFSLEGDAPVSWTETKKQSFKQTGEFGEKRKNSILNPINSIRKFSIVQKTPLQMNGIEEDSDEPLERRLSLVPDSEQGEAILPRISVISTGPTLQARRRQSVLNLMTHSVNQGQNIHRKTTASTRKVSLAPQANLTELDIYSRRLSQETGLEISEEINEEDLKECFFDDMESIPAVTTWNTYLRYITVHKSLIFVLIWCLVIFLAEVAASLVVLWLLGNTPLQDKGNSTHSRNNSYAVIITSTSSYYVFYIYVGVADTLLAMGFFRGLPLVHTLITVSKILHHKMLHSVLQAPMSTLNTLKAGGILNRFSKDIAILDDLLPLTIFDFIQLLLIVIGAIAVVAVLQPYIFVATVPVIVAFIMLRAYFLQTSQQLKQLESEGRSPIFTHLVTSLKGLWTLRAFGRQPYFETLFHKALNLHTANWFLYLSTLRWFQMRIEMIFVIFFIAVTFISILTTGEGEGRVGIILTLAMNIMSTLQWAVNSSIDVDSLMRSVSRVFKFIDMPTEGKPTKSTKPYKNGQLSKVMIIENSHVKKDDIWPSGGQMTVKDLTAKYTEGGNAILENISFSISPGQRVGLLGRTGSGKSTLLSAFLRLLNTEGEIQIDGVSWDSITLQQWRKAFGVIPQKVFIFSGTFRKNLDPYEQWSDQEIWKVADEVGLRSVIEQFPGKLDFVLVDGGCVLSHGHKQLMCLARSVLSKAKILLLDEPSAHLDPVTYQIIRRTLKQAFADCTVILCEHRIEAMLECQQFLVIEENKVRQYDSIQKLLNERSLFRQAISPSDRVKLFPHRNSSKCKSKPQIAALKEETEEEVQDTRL
T1 sequence (P13569 423-646 limits assumed): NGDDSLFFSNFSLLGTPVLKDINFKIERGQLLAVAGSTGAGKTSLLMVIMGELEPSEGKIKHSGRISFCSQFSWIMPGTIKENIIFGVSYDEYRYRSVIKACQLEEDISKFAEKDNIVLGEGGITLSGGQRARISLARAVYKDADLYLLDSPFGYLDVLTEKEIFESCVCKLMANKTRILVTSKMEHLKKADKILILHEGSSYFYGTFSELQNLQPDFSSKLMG

For `Cn1nc2nc1-c1cc(ccc1F)C(O)c1c(F)cc3[nH]ccc3c1CCS(=O)(=O)CC(C)(C)CCCC2(C)c1cccc(CCC(=O)O)c1` (single isomer, unassigned) [Compound 30C, 3-[3-(22,28-difluoro-24-hydroxy-3,6,10,10-tetramethyl-12,12-dioxo-12lambda6-thia-3,4,19,30-tetrazapentacyclo[23.3.1.12,5.015,23.016,20]triaconta-1(29),2(30),4,15,17,20,22,25,27-nonaen-6-yl)phenyl]propanoic acid], the “DSLS 3D (100 μM ΔT)” value in assay [1] was “B (a value above 5 °C and less than or equal to 10 °C is marked “B”)”. Also, the “TECC (AUC, 10 μM)” value in assay [2] was “C (a value between 20 and 80 is marked “C”)”.

Take `COC(=O)CCc1cccc(C2(C)CCCC(C)(C)CS(=O)(=O)CCc3c(c(F)cc4[nH]ccc34)C(=O)c3ccc(F)c(c3)-c3nc2nn3C)c1` (single isomer, unassigned) [Compound 31B, methyl 3-[3-[22,28-difluoro-3,6,10,10-tetramethyl-12,12,24-trioxo-12lambda6-thia-3,4,19,30-tetrazapentacyclo[23.3.1.12,5.015,23.016,20]triaconta-1(29),2(30),4,15,17,20,22,25,27-nonaen-6-yl]phenyl]propanoate]: the “DSLS 3D (100 μM ΔT)” value in assay [1] is “A (an ΔTagg value less than or equal to 5 °C is marked “A”)”. In addition, the “TECC (AUC, 10 μM)” value in assay [2] is “B (a value between 12-20 is marked “B”)”.

As to `C[C@@H](Cc1cccc([C@@]2(C)CCCC(C)(C)CS(=O)(=O)CCc3c(c(F)cc4[nH]ccc34)Sc3ccc(F)c(c3)-c3nc2nn3C)c1)C(=O)O` [Compound 242, (2S)-3-[3-[(6R)-22,28-difluoro-3,6,10,10-tetramethyl-12,12-dioxo-12λ6,24-dithia-3,4,19,30-tetrazapentacyclo[23.3.1.12,5.015,23.016,20]triaconta-1(29),2(30),4,15,17,20,22,25,27-nonaen-6-yl]phenyl]-2-methyl-propanoic Acid], the “DSLS 3D (100 μM ΔT)” value in assay [1] was “C (a value greater than 10 °C and less than or equal to 25 °C is marked “C”)”. In assay [2], the “TECC (AUC, 10 μM)” value is “C (a value between 20 and 80 is marked “C”)”.

For `Cn1nc2nc1-c1cncc(c1)Oc1c(F)cc3[nH]ccc3c1CCS(=O)(=O)CC(C)(C)CCC[C@]2(C)c1cccc(CCC(=O)O)c1` [Compound 252, 3-[3-[(6R)-22-Fluoro-3,6,10,10-tetramethyl-12,12-dioxo-24-oxa-12λ6-thia-3,4,19,27,30-pentazapentacyclo[23.3.1.12,5.015,23.016,20]triaconta-1(29),2(30),4,15(23),16(20),17,21,25,27-nonaen-6-yl]phenyl]propanoic Acid], in assay [1], the “DSLS 3D (100 μM ΔT)” value is “C (a value greater than 10 °C and less than or equal to 25 °C is marked “C”)”. The “TECC (AUC, 10 μM)” value in assay [2] is “C (a value between 20 and 80 is marked “C”)”.

For the molecule `O=C(O)CCc1cccc(C2CCS(=O)(=O)CCc3cn(nn3)Cc3c(c(F)cc4[nH]ccc34)Oc3ccc(F)c(c3)-c3ncc2[nH]3)c1F` (stereo not shown) [Compound 40, 3-[3-(24,30-Difluoro-9,9-dioxo-26-oxa-9lambda6-thia-3,13,14,15,21,33-hexazahexacyclo[25.3.1.12,5.112,15.017,25.018,22]tritriaconta-1(31),2,4,12(32),13,17,19,22,24,27,29-undecaen-6-yl)-2-fluoro-phenyl]propanoic Acid], the “DSLS 3D (100 μM ΔT)” value in assay [1] was “C (a value greater than 10 °C and less than or equal to 25 °C is marked “C”)”. The “TECC (AUC, 10 μM)” value in assay [2] is “B (a value between 12-20 is marked “B”)”.

For the molecule `C[C@H](Cc1cccc(C2(C)CCCC(C)(C)CS(=O)(=O)CCc3c(c(F)cc4[nH]ccc34)[S+]([O-])c3ccc(F)c(c3)-c3nc2nn3C)n1)C(=O)O` (single isomer, unassigned) [Compound 181A], in assay [1], the “DSLS 3D (100 μM ΔT)” value is “B (a value above 5 °C and less than or equal to 10 °C is marked “B”)”. The “TECC (AUC, 10 μM)” value in assay [2] is on record as “A (a TECC value less than 12 is marked “A”)”.

As to `C[C@H](Cc1cccc([C@@]2(C)CCCC(C)(C)CS(=O)(=O)CCc3c(c(F)c(F)c4[nH]ccc34)Oc3ccnc(c3)-c3nc2nn3C)c1)C(=O)O` [Compound 221, (2R)-3-[3-[(6R)-21,22-difluoro-3,6,10,10-tetramethyl-12,12-dioxo-24-oxa-12λ6-thia-3,4,19,28,30-pentazapentacyclo[23.3.1.12,5.015,23.016,20]triaconta-1(29),2(30),4,15,17,20,22,25,27-nonaen-6-yl]phenyl]-2-methyl-propanoic Acid], the “DSLS 3D (100 μM ΔT)” value in assay [1] was “C (a value greater than 10 °C and less than or equal to 25 °C is marked “C”)”. Also, in assay [2], the “TECC (AUC, 10 μM)” value is recorded as “B (a value between 12-20 is marked “B”)”.

As to `Cn1nc2nc1-c1cc(ccc1F)Oc1c(F)cc3[nH]ccc3c1CCS(=O)(=O)CC(C)(C)CCCC2(C)c1cccc(CC(O)C(=O)O)c1` (single isomer, unassigned) [Compound 134A, 3-[3-(22,28-Difluoro-3,6,10,10-tetramethyl-12,12-dioxo-24-oxa-12λ6-thia-3,4,19,30-tetrazapentacyclo-[23.3.1.12,5.015,23.016,20]-triaconta-1(29),2(30),4,15,17,20,22,25,27-nonaen-6-yl)phenyl]-2-hydroxy-propanoic Acid], in assay [1], the “DSLS 3D (100 μM ΔT)” value is “C (a value greater than 10 °C and less than or equal to 25 °C is marked “C”)”. Besides, in assay [2], the “TECC (AUC, 10 μM)” value is “C (a value between 20 and 80 is marked “C”)”.

`CC1(C)CCCC(C)(c2cccc(CCC(=O)O)c2)c2nc(n[nH]2)-c2cc(ccc2F)Oc2c(F)cc3[nH]ccc3c2CCS(=O)(=O)C1` (single isomer, unassigned) [Compound 63A, 3-[3-(22,28-difluoro-6,10,10-trimethyl-12,12-dioxo-24-oxa-12λ6-thia-3,4,19,30-tetrazapentacyclo[23.3.1.12,5.015,23.016,20]triaconta-1(29),2,5(30),15,17,20,22,25,27-nonaen-6-yl)phenyl]propanoic Acid]: in assay [1], the “DSLS 3D (100 μM ΔT)” value was “B (a value above 5 °C and less than or equal to 10 °C is marked “B”)”. In assay [2], the “TECC (AUC, 10 μM)” value was “C (a value between 20 and 80 is marked “C”)”.

`Cc1cn2nc1-c1cc(ccc1F)Oc1c(F)cc3[nH]ccc3c1CCS(=O)(=O)CC(C)(C)CCCC2c1cccc(CCC(=O)O)c1` (racemic) [Compound 66, 3-[3-(22,28-Difluoro-3,10,10-trimethyl-12,12-dioxo-24-oxa-12λ6-thia-5,19,30-triazapentacyclo[23.3.1.12,5.015,23.016,20]triaconta-1(29),2(30),3,15,17,20,22,25,27-nonaen-6-yl)phenyl]propanoic Acid]: in assay [1], the “DSLS 3D (100 μM ΔT)” value was “C (a value greater than 10 °C and less than or equal to 25 °C is marked “C”)”. Besides, in assay [2], the “TECC (AUC, 10 μM)” value is “B (a value between 12-20 is marked “B”)”.

In the case of `C[C@@H](Cc1cccc([C@@]2(C)CCCC(C)(C)CS(=O)(=O)CCc3c(c(F)c(F)c4[nH]ccc34)Oc3ccc(F)c(c3)-c3nc2nn3C)c1)C(=O)O` [Compound 245, (2S)-2-methyl-3-[3-[(6R)-21,22,28-trifluoro-3,6,10,10-tetramethyl-12,12-dioxo-24-oxa-12λ6-thia-3,4,19,30-tetrazapentacyclo[23.3.1.12,5.015,23.016,20]triaconta-1(29),2(30),4,15,17,20,22,25,27-nonaen-6-yl]phenyl]propanoic Acid], in assay [1], the “DSLS 3D (100 μM ΔT)” value was “C (a value greater than 10 °C and less than or equal to 25 °C is marked “C”)”. Besides, in assay [2], the “TECC (AUC, 10 μM)” value is “C (a value between 20 and 80 is marked “C”)”.

`Cn1nc2nc1-c1cc(ccc1F)[S+]([O-])c1c(F)cc3[nH]ccc3c1CCS(=O)(=O)CC(C)(C)CCC[C@]2(C)c1cccc([C@@H](O)CO)c1` (single isomer, unassigned) [Compound 236A]: the “DSLS 3D (100 μM ΔT)” value in assay [1] was “B (a value above 5 °C and less than or equal to 10 °C is marked “B”)”. In addition, the “TECC (AUC, 10 μM)” value in assay [2] was “A (a TECC value less than 12 is marked “A”)”.

`CC(Cc1cccc(C2(CN)CCCC(C)(C)CS(=O)(=O)CCc3c(c(F)cc4[nH]ccc34)Oc3ccc(F)c(c3)-c3nc2nn3C)c1)C(=O)O` (single isomer, unassigned) [Compound 136B, 3-[3-[6-(aminomethyl)-22,28-difluoro-3,10,10-trimethyl-12,12-dioxo-24-oxa-12λ6-thia-3,4,19,30-tetrazapentacyclo-[23.3.1.12,5.015,23.016,20]triaconta-1(29),2(30),4,15,17,20,22,25,27-nonaen-6-yl]phenyl]-2-methyl-propanoic Acid]: the “DSLS 3D (100 μM ΔT)” value in assay [1] is “C (a value greater than 10 °C and less than or equal to 25 °C is marked “C”)”. Moreover, the “TECC (AUC, 10 μM)” value in assay [2] is “C (a value between 20 and 80 is marked “C”)”.

`CC1(C)COCC(c2cccc(CCC(=O)O)c2)n2ccc(n2)-c2cc(ccc2F)Oc2c(F)cc3[nH]ccc3c2CCS(=O)(=O)C1` (stereo not shown) [Compound 58, 3-[3-(22,28-Difluoro-10,10-dimethyl-12,12-dioxo-8,24-dioxa-12λ6-thia-5,19,30-triazapentacyclo[23.3.1.12,5.015,23.016,20]triaconta-1(29),2(30),3,15,17,20,22,25,27-nonaen-6-yl)phenyl]propanoic Acid]: the “DSLS 3D (100 μM ΔT)” value in assay [1] is “C (a value greater than 10 °C and less than or equal to 25 °C is marked “C”)”. For the same molecule, in assay [2], the “TECC (AUC, 10 μM)” value is listed as “B (a value between 12-20 is marked “B”)”.
